Source: US20140121164A1, “PREVENTION OF KIDNEY INJURY OR DISEASE” (University of Florida Research Foundation, priority 2012, published 2014)
“Also recorded” adds a separate entry of the source.

Experiments:
[1] = test system: patients undergoing cardiac surgery on cardiopulmonary bypass (CPB); assay: CS007 trial: short and long term efficacy signals and safety of AP214 in patients undergoing cardiac surgery on cardiopulmonary bypass; format: in vivo, human; conditions: for average serum creatinine values over time: through 168 hours post surgery; for outcomes as measured by the composite endpoint (all cause death, RRT, kidney function): 90 day post-operative period, vs placebo; for population distribution of extreme serum creatinine values: highest quartile; for kidney function as measured by estimated GFR: seven day post-operative period
Source text: The CS007 trial was designed to study both short and long term efficacy signals (FIG. 5).
Primary Aims • Safety: Safety and tolerability vs. placebo • Efficacy: Max post-operative change in absolute values of SCr compared to baseline within the first 7 days after surgery or until discharge from hospital, whichever comes first vs. placebo.
Secondary Aims • Composite: • Assess the proportion of patients reaching the composite endpoint of death, need for RRT or a 25% reduction in renal function over a 90 day post-operative period vs. placebo. • AKIN: Assess post-operative incidence of AKI within 48 hours post-surgery • RIFLE: Assess post-operative incidence of AKI within first 7 days post-surgery. • SCr: Changes between surgery and postoperative day 7. • GFR: Changes at day 90 compared to baseline. • eGFR: Changes between surgery and postoperative day 7
Each dosage was provided over a period of 10 minutes. As used throughout this disclosure and unless specified otherwise, “μg/kg” refers to μg AP214 per kg bodyweight of the patient being treated.
Moreover, in the same double-blind study described in this Example, patients undergoing cardiac surgery on cardiopulmonary bypass (CPB) were randomized to placebo (PBO; n=26), AP214 given at either 600 μg/kg (n=25), or 800 μg/kg (n=26), divided into 3 bolus infusions at the predetermined intervals as described above. AKI was determined according to AKIN and RIFLE scores.

[2] = test system: patients undergoing cardiac surgery; assay: Prevention of AKI by different dosage regimes of AP214 in patients undergoing cardiac surgery (CS005 protocol); format: in vivo, human
Description: Each of 12 patients undergoing cardiac surgery (the AP214 group) was dosed with 600 μg/kg AP214: 200 μg/kg at skin incision, 200 μg/kg at cross clamp release, and 200 μg/kg 6-hour after cross clamp release. Each dosage was provided over a period of 10 minutes. The placebo group included 13 patients undergoing cardiac surgery without AP214 infusion.
Objectives • trial objective was to assess the effect of AP214 on • 1) changes in serum creatinine, cystatin-C and carbamade, • 2) on eGFR and • 3) on the development of post-surgical acute kidney injury (AKI) • AKI also assessed (post-hoc analysis) by AKIN and RIFLE
Three different definitions of AKI were tested: • 1) 3 patients in the AP214 group developed AKI, in contrast to 7 patients in the placebo group who developed AKI. AKI is defined as in the CS005 protocol: • An absolute increase in serum creatinine of more than or equal to 26.4 μmol/l (0.3 mg/dl) or • A percentage increase in serum creatinine of more than or equal to 50% (1.5-fold from baseline) from Day 0-14 and/or • Urine output less than 0.5 mL/kg per hour for more than 6 hours. • 2) AKI according to the AKIN score as presented in FIG. 3a, and • 3) AKI according to the RIFLE score as presented in FIG. 3b.

[3] = test system: pigs after induction of complete warm ischemia in the kidney; conditions: 200 μg/kg, 10 ml i.v. bolus during 1 minute, seven doses; cited from earlier work
subjects = assay: Evaluation of rate of infusion of AP214 (CS002); format: in vivo, human
Description: To establish a suitable rate of infusion of AP214 a set of patient trials were performed.
AP214 isotonic solution single ascending doses (25, 50 and 100 μg/kg) for intravenous infusion administered over 10 minutes, or placebo (saline infusion).
AP214 isotonic solution single doses (100 μg/kg over 1 minute; 100 μg/kg over 30 seconds; 200 μg/kg over 30 seconds) for intravenous infusion.

[4] = 600 μg/kg bodyweight (3×200 μg/kg), i.v. over 10 min each, vs placebo
[5] = 600 μg/kg bodyweight, vs placebo

## CSCC[C@H](NC(=O)[C@H](CO)NC(=O)[C@H](Cc1ccc(O)cc1)NC(=O)[C@H](CO)NC(=O)[C@H](CCCCN)NC(=O)[C@H](CCCCN)NC(=O)[C@H](CCCCN)NC(=O)[C@H](CCCCN)NC(=O)[C@H](CCCCN)NC(=O)[C@H](CCCCN)NC(C)=O)C(=O)N[C@@H](CCC(=O)O)C(=O)N[C@@H](Cc1c[nH]cn1)C(=O)N[C@@H](Cc1ccccc1)C(=O)N[C@@H](CCCNC(=N)N)C(=O)N[C@@H](Cc1c[nH]c2ccccc12)C(=O)NCC(=O)N[C@@H](CCCCN)C(=O)N1CCC[C@H]1C(=O)N[C@H](C(N)=O)C(C)C [AP214, Acetyl-Lysyl-L-lysyl-L-lysyl-L-lysyl-L-lysyl-L-lysyl-L-seryl-L-tyrosyl-L-seryl-L-methionyl-Lglutamyl-L-histidyl-L-phenylalanyl-L-arginyl-L-tryptophanyl-glycyl-L-lysyl-L-prolyl-L-valine amide]
[1]; 600 μg/kg (3×200 μg/kg)
  average serum creatinine values over time: decreased average serum creatinine; also recorded: decreasing average serum creatinine values over time
[1]; 600 μg/kg
  outcomes as measured by the composite endpoint (all cause death, RRT, kidney function): reduction in outcomes with the 600 μg/kg dosage showing statistical significance; also recorded: reduction in negative outcomes
  population distribution of extreme serum creatinine values: reduction in serum creatinine values at the highest quartile
  kidney function as measured by estimated GFR: increased kidney function
[1]; 800 μg/kg
  degrees of acute kidney injury compared to placebo: lesser degrees of acute kidney injury
  patients scored as AKI by AKIN and RIFLE criteria: decrease in patients scored as AKI
  outcomes as measured by the composite endpoint (all cause death, RRT, kidney function): reduction in negative outcomes
  population distribution of extreme serum creatinine values: reduction in serum creatinine values at the highest quartile
  kidney function as measured by estimated GFR: increased kidney function
[1]; 800 μg/kg (1×200, 1×400, 1×200 μg/kg)
  average serum creatinine values over time: decreased average serum creatinine; also recorded: decreasing average serum creatinine values over time
[1]; 800 μg/kg vs. placebo, Danish sites only
  GFR change (reduction) at Day 90 compared to baseline: significantly lower GFR change (reduction)
[1]; 800 μg/kg, combined CABG and valve surgery, multiple valve surgery, chronic kidney disease and CABG (or valve surgery)
  incidence of AKI compared with PBO by surgery type: numerically lower incidence of AKI
[1]; 600 and 800 μg/kg, each dosage over 10 minutes
  safety and tolerability: safe and well tolerated
[2]; 150 μg/kg bodyweight (3×50 μg/kg), same dosing scheme
  prevention of AKI as compared to the placebo: showed no prevention of AKI
[2]; 600 μg/kg (3×200 μg/kg), AP214 group of 12 patients, Day 0-14
  patients who developed AKI (AKI as defined in the CS005 protocol): 3 patients
[2]; 600 μg/kg bodyweight (3×200 μg/kg)
  development of AKI according to the RIFLE score and AKIN scores: demonstrated prevention in the development of AKI
[2]; [4]
  decrease in eGFR: prevented a decrease in eGFR
  increase in serum creatinine: prevented
[2]; [5]
  increase in carbamide: prevented
  increase in cystatin C: prevented an increase in cystatin C
[3]
  renoprotective effect: provides a renoprotective effect
subjects; 200 μg/kg over 30 seconds
  adverse events relative to 100 μg/kg over 30 sec and 1 minute: more adverse events
subjects; Group 2 (n=6), short infusion times
  subjects reporting erythema: 6 subjects
subjects; Group 2 (n=6), short infusion times: 100 μg/kg over 1 minute, 100 μg/kg over 30 seconds, 200 μg/kg over 30 seconds, i.v.
  adverse events: large number of adverse events
subjects; Group 2, short infusion times
  episodes of vomiting in one subject: 8 episodes
subjects; fast infusion rates
  tolerability: not well tolerated
subjects; slower infusion rate, 100 μg/kg over 10 minutes
  adverse effects: did not show these adverse effects
subjects; slower infusion rates (e.g., 10 minutes)
  tolerability: better tolerated
